Reference: patent EP0449955B1, “SYNTHETIC HIV-LIKE PEPTIDES, THEIR COMPOSITIONS AND USES” (CLARITY TECHNOLOGIES INCORPORATED, priority 1988, dated 1996)

Test system: antibodies to HIV-2
Test: EIA of HIV-2 peptide-BSA conjugates with macaque sera
Format: binding
Settings: macaque sera containing or not containing antibodies to HIV-2, Figure 7
Description: The synthetic peptides of Figures 1-8 were reduced with 10mM DTT, or with immobilized DTT (Reductacryl, Calbiochem, San Diego, California, U.S.A., 10 mg Reductacryl per mg peptide) overnight at 4°C, pH8 in 10mM borate or other buffers depending upon peptide solubility, with gentle mixing. KLH was dissolved at a concentration of 10-30 mg/ml in 10 mM phosphate buffer pH 7.2., and BSA was dissolved at a concentration of 20-80 mg/ml for treatment with heterobifunctional linkers MBS (m-Maleimidobenzoyl-N-hydroxysuccinimide ester), SPDP [N-Succinimidyl 3-(2 pyridyldithio)propionate], or Sulfo-SMCC [Sulfo-Succinimidyl 4(N-maleimidomethyl)-cyclohexane-1-carboxylate]. The heterobifunctional linkers were added to the protein solutions in a molar excess of linker to BSA of 100, or of linker to KLH of 1000. MBS was dissolved in DMF at 10mg/ml, SPDP was dissolved in absolute ethanol at 10mg/ml and each of these was added dropwise with mixing into the protein solution, whereas the Sulfo-SMCC dry powder was dissolved into the protein solution. Each protein-linker mixture was reacted at room temperature for 15 minutes to 1 hour and then free linker was separated from BSA-linker or KLH-linker by gel chromatography with Sephadex G25 using 50mM phosphate, pH 6 for KLH-MBS, 10mM acetate, 100 mM Nacl, pH 4.6 for BSA-SPDP, or 100 mM phosphate, 1 mM EDTA, pH 6.5 for BSA-SMCC. The reduced peptides were separated from DTT by Sephadex G10 column chromatography when soluble DTT was used, or by centrifugation followed by filtration through a 0.22 micron filter when Reductacryl was used. Reduced peptides were combined with linker treated KLH or BSA in molar ratios of 100-1000 peptide/KLH-MBS, 1-50 peptide/BSA-SMCC, and 0.1-10 peptide/BSA-SPDP. Each reduced peptide was added to the linker-treated protein with mixing, overlayed with N₂, and then mixed gently at room temperature for one hour, and then overnight at 4°C. The SMCC-BSA conjugates were further treated with a 1 mM final concentration of mercaptoethylamine for 4 hours, and then dialyzed overnight against 100 volumes of buffer (20mM phosphate, 1 mM EDTA, 0.05% sodium azide, pH 6.5) at 4°C. All other conjugates were adjusted to a final concentration of sodium azide of 0.05%. Optimal molar ratios of peptide/protein for the conjugates were determined by solubility and antigenicity (as evaluated by EIA).
The free peptides or peptide-protein conjugates of Figures 1-13 were initially screened for immunoreactivity by coating each well of polystyrene microtiter EIA plates (Costar, Cambridge, Massachusetts, U.S.A.) with 0.2 ml amounts of concentrations of 5-50 micrograms/ml peptide in Tris buffer, 10 mM, pH 8.0, at 4°C overnight. […]

ARLNSWGCAFRQVCHGC [2S25]
discrimination of positive from negative samples: most favorable performances
